Assay results reported in the NIST ThermoML archive (doi:10.1016/j.jct.2011.08.017).
Several values for one entry are separate records, joined by “and”; a condition that tells them apart may be missing. Identical values can stand only once.

Experiments:
[1] = for Normal melting temperature: DTA
[2] = Molar enthalpy of transition or fusion; conditions: Crystal; DSC

c1c[nH]cn1 [1H-imidazole]
[1]
Conditions	vapor or sublimation pressure [kPa]
303.99 K, Crystal, Closed cell (Static) method	0.00058
306.97 K, Crystal, Closed cell (Static) method	0.00079
309.99 K, Crystal, Closed cell (Static) method	0.00108
312.98 K, Crystal, Closed cell (Static) method	0.00145
315.94 K, Crystal, Closed cell (Static) method	0.00195
318.92 K, Crystal, Closed cell (Static) method	0.00263
321.97 K, Crystal, Closed cell (Static) method	0.0035
324.96 K, Crystal, Closed cell (Static) method	0.00469
327.95 K, Crystal, Closed cell (Static) method	0.00621
330.92 K, Crystal, Closed cell (Static) method	0.00819
333.9 K, Crystal, Closed cell (Static) method	0.01063
333.9 K, Metastable liquid, Closed cell (Static) method	0.01485
336.88 K, Crystal, Closed cell (Static) method	0.01377
336.89 K, Metastable liquid, Closed cell (Static) method	0.01859
339.86 K, Crystal, Closed cell (Static) method	0.01782
339.86 K, Metastable liquid, Closed cell (Static) method	0.02311
342.84 K, Crystal, Closed cell (Static) method	0.02289
342.84 K, Metastable liquid, Closed cell (Static) method	0.02848
345.81 K, Metastable liquid, Closed cell (Static) method	0.03509
345.83 K, Crystal, Closed cell (Static) method	0.02923
348.8 K, Crystal, Closed cell (Static) method	0.03701
348.8 K, Metastable liquid, Closed cell (Static) method	0.04297
351.75 K, Metastable liquid, Closed cell (Static) method	0.05222
351.77 K, Crystal, Closed cell (Static) method	0.04693
354.75 K, Crystal, Closed cell (Static) method	0.0592
354.76 K, Metastable liquid, Closed cell (Static) method	0.06354
357.72 K, Crystal, Closed cell (Static) method	0.07394
357.72 K, Metastable liquid, Closed cell (Static) method	0.07682
360.69 K, Metastable liquid, Closed cell (Static) method	0.09288
363.67 K, Closed cell (Static) method, Liquid	0.1112
366.66 K, Closed cell (Static) method, Liquid	0.1336
369.63 K, Closed cell (Static) method, Liquid	0.1596
372.6 K, Closed cell (Static) method, Liquid	0.1912
375.56 K, Closed cell (Static) method, Liquid	0.2249
378.51 K, Closed cell (Static) method, Liquid	0.2655
381.51 K, Closed cell (Static) method, Liquid	0.3134
384.48 K, Closed cell (Static) method, Liquid	0.3688

Conditions	Normal melting temperature [°C]
[1], Crystal	86.2

Conditions	Molar enthalpy of transition or fusion [kcal/mol]
[2]	3.13

Cn1cnc(Cl)c1Cl [4,5-dichloro-1-methyl-1H-imidazole]
[1]
Conditions	vapor or sublimation pressure [kPa]
288.03 K, Crystal, Closed cell (Static) method	0.00048
290.06 K, Crystal, Closed cell (Static) method	0.0006
292.08 K, Crystal, Closed cell (Static) method	0.00076
294.06 K, Crystal, Closed cell (Static) method	0.00096
296.06 K, Crystal, Closed cell (Static) method	0.0012
298.04 K, Crystal, Closed cell (Static) method	0.00149
300.05 K, Crystal, Closed cell (Static) method	0.00185
302.01 K, Crystal, Closed cell (Static) method	0.00231
303.99 K, Crystal, Closed cell (Static) method	0.00286
306.02 K, Crystal, Closed cell (Static) method	0.00352
307.96 K, Crystal, Closed cell (Static) method	0.0043
309.97 K, Crystal, Closed cell (Static) method	0.00527
311.98 K, Crystal, Closed cell (Static) method	0.00646
313.95 K, Crystal, Closed cell (Static) method	0.00782
315.93 K, Crystal, Closed cell (Static) method	0.00957
317.91 K, Crystal, Closed cell (Static) method	0.01164
319.99 K, Crystal, Closed cell (Static) method	0.01413
322 K, Crystal, Closed cell (Static) method	0.01693
323.97 K, Crystal, Closed cell (Static) method	0.02049
325.97 K, Crystal, Closed cell (Static) method	0.02463
329.93 K, Metastable liquid, Closed cell (Static) method	0.03434
331.93 K, Closed cell (Static) method, Liquid	0.03936
333.9 K, Closed cell (Static) method, Liquid	0.04506
335.89 K, Closed cell (Static) method, Liquid	0.05151
337.88 K, Closed cell (Static) method, Liquid	0.05882
339.87 K, Closed cell (Static) method, Liquid	0.06701
341.86 K, Closed cell (Static) method, Liquid	0.07636
343.84 K, Closed cell (Static) method, Liquid	0.08631
345.82 K, Closed cell (Static) method, Liquid	0.09809
347.8 K, Closed cell (Static) method, Liquid	0.1106
349.78 K, Closed cell (Static) method, Liquid	0.1248

Conditions	Normal melting temperature [°C]
[1], Crystal	57.0

Conditions	Molar enthalpy of transition or fusion [kcal/mol]
[2]	4.06

Clc1nc[nH]c1Cl [4,5-dichloroimidazole]
[1], Crystal, Closed cell (Static) method
Conditions	vapor or sublimation pressure
337.91 K	0.00048 kPa
339.87 K	0.00059 kPa
341.87 K	0.00072 kPa
341.88 K	0.00071 kPa
343.83 K	0.00086 kPa
345.84 K	0.00104 kPa
345.85 K	0.00104 kPa
347.81 K	0.00125 kPa
349.81 K	0.00148 kPa and 0.00151 kPa
351.78 K	0.0018 kPa
355.75 K	0.00258 kPa
357.73 K	0.00306 kPa
359.72 K	0.00366 kPa
361.71 K	0.00434 kPa
363.69 K	0.00513 kPa
365.67 K	0.00607 kPa
367.66 K	0.00722 kPa
369.64 K	0.00841 kPa
371.62 K	0.00998 kPa
373.6 K	0.01172 kPa
375.6 K	0.01368 kPa
377.56 K	0.01597 kPa
379.54 K	0.0184 kPa
381.52 K	0.02175 kPa
383.45 K	0.02487 kPa
385.49 K	0.02923 kPa
387.38 K	0.03334 kPa
389.45 K	0.03896 kPa
391.33 K	0.04433 kPa
393.4 K	0.05168 kPa
395.37 K	0.0589 kPa

Conditions	Normal melting temperature [°C]
[1], Crystal	183.6

Conditions	Molar enthalpy of transition or fusion [kcal/mol]
[2]	4.21

N#Cc1nc[nH]c1C#N [4,5-dicyanoimidazole]
[1], Crystal, Calculated from knudsen effusion weight loss
Conditions	vapor or sublimation pressure
383.16 K	0.000153 kPa and 0.00015 kPa
385.16 K	0.000182 kPa and 0.000184 kPa and 0.000183 kPa
387.12 K	0.000223 kPa and 0.000222 kPa
389.16 K	0.000267 kPa and 0.000264 kPa
391.16 K	0.000325 kPa
393.12 K	0.000386 kPa and 0.000383 kPa and 0.000389 kPa
395.16 K	0.000462 kPa and 0.000464 kPa
397.16 K	0.000556 kPa
399.14 K	0.000668 kPa and 0.000664 kPa and 0.000666 kPa
401.16 K	0.000791 kPa and 0.000782 kPa and 0.000796 kPa
403.15 K	0.000954 kPa and 0.000931 kPa and 0.000932 kPa

Conditions	Normal melting temperature [°C]
[1], Crystal	176

Conditions	Molar enthalpy of transition or fusion [kcal/mol]
[2]	5.4
